# Values of other authors as cited in PMC11165342 (Asian Journal of Pharmaceutical Sciences, 2024).
structure (smiles),measurement,value
"CC(C(=O)O)c1ccc(-c2ccccc2)c(F)c1 (stereo not shown) [FB, Flurbiprofen]",pKa,3.5–4.5
